Broadly, the melting point is the temperature of the solid-liquid transition. As usually defined, the boiling point is the temperature at which the vapour pressure of the liquid equals the pressure above it.

This is an account of results in the OPERA property sets (Mansouri et al. 2018).

As to `CNC(=O)Oc1ccccc1OC(C)C`, the log10 Koc (L/kg) turned out to be 1.67, the log10 vapour pressure (mmHg) is -5.01, the melting point stood at 87 °C and the ready biodegradability entry is listed as “readily biodegradable”.

`CCN(CC)CCCN` came in with a boiling point of 168 °C.

As for `O=C(O)c1cccc(C(=O)O)c1C(=O)O`, the melting point was found to be 200 °C.

The molecule `CCC(=O)C(=O)CC` returned a boiling point of 130 °C and a melting point of -10 °C.

`Cc1nnc(NS(=O)(=O)c2ccc(N)cc2)s1` had a melting point of 208 °C.

As to `NCc1ccccc1`, the boiling point was 185 °C, the log10 vapour pressure (mmHg) was -0.185 and the ready biodegradability entry is “readily biodegradable”.

Regarding `Clc1nc(Cl)nc(Cl)n1`, the boiling point stood at 192 °C and the melting point was determined as 154 °C.

`C=CCC1(C(C)CCC)C(=O)NC(=S)NC1=O` (stereo unspecified) returned a melting point of 132 °C.

As to `Cc1cc(Cl)cc(Cl)c1Cl`, the boiling point came out at 230 °C and the melting point was 45.5 °C.

As for `C#CC(O)(C=CCl)CC` (stereo unspecified), the boiling point was found to be 174 °C and the log10 vapour pressure (mmHg) was -1.

Molecule `Cc1cc2ccccc2o1` showed a boiling point of 198 °C and a log10 vapour pressure (mmHg) of -0.312.

On to `CCCCCCCC(=O)CC`, for which the boiling point was 203 °C and the melting point was found to be 2.5 °C.

In turn, `c1ccc(C2CC2)cc1` showed a boiling point of 174 °C and a melting point of -31 °C.

In the case of `O=C(O)c1ccc([N+](=O)[O-])c([N+](=O)[O-])c1`, the log10 Koc (L/kg) was found to be 1.53 and the melting point amounted to 166 °C.

Regarding `Cc1ccc(N)c(S(=O)(=O)O)c1`, the ready biodegradability result is recorded as “not readily biodegradable”.

Molecule `FCF` registered a boiling point of -51.6 °C, a log10 vapour pressure (mmHg) of 4.1 and a melting point of -136 °C.

On to `Cc1cc(O)ccc1O`, for which the boiling point is 272 °C and the melting point is 128 °C.

`CC(C)CC(C)C` had a boiling point of 80.4 °C, a log10 biodegradation half-life (days) of 1.68, a log10 vapour pressure (mmHg) of 1.9 and a melting point of -120 °C.

For the molecule `COc1cc(O)c2c(=O)c(O)c(-c3ccc(O)c(O)c3)oc2c1`, the melting point turned out to be 295 °C.

`CC1(C)[C@H]2CC[C@]1(C)C(=O)[C@H]2O`: the melting point amounted to 206 °C.

Take `CC(C)Br`: the boiling point worked out at 59.5 °C, the log10 vapour pressure (mmHg) was found to be 2.34, the melting point is -89 °C and the ready biodegradability entry is “readily biodegradable”.

Turning to `NCC1CCC(C(=O)O)CC1` (stereo unspecified), the ready biodegradability entry is listed as “not readily biodegradable”.

As to `Cc1cccc(C)c1OCC(C)N` (stereo unspecified), the melting point was 204 °C.

On to `C1CCCSCC1`, for which the boiling point worked out at 174 °C and the melting point amounted to 0.5 °C.

On to `O=S1(=O)CCOCC1`, for which the melting point was 132 °C.

Molecule `CC/C=C\C/C=C\C/C=C\CCCCCCCC(=O)OC` returned a log10 vapour pressure (mmHg) of -5.29.

In the case of `OCCOCCO`, the boiling point is 246 °C, the log10 vapour pressure (mmHg) was -2.24, the melting point was -10.4 °C and the ready biodegradability result is “readily biodegradable”.

As to `NC(=S)N=C(N)N`, the melting point came out at 172 °C.

In the case of `N=C(N)NS(=O)(=O)c1ccc(N)cc1`, the melting point is 192 °C.

`C=C(C)C(=O)OCCCCOC(=O)C(=C)C` came in with a melting point of 226 °C.

`C=C(C)[C@H]1Cc2c(cc(O)c3c2O[C@@H]2COc4cc(OC)c(OC)cc4[C@@H]2C3=O)O1` came in with a melting point of 195 °C.

`FCI` showed a boiling point of 53.4 °C.

On to `N#Cc1ccncc1`, for which the boiling point was 214 °C, the log10 Henry constant (atm·m³/mol) is -6.03 and the melting point worked out at 79 °C.

In the case of `C=CCO`, the boiling point worked out at 97 °C, the log10 Henry constant (atm·m³/mol) was -5.3, the log10 vapour pressure (mmHg) was 1.42 and the melting point is -129 °C. Moreover, the ready biodegradability entry was “readily biodegradable”.

Regarding `O=C1c2c(O)ccc(Nc3ccccc3)c2C(=O)c2c([N+](=O)[O-])ccc(O)c21`, the ready biodegradability result is recorded as “not readily biodegradable”.

Consider `Clc1nc2ccccc2o1`, for which the boiling point came to 202 °C.

`CN1CC[C@]23c4c5ccc(OCCN6CCOCC6)c4O[C@H]2[C@@H](O)C=C[C@H]3[C@H]1C5` yielded a melting point of 91 °C.

In turn, `CCOC(=O)C1CC(=O)C(=C(O)C2CC2)C(=O)C1` (stereo unspecified) returned a log10 vapour pressure (mmHg) of -4.79 and a melting point of 36 °C.

For `Oc1ccc2c3c1O[C@H]1[C@@H](O)C=C[C@H]4[C@H](C2)NCC[C@@]341`, the melting point amounted to 273 °C.

`CC(C)(C)c1cccc([N+](=O)[O-])c1` gave a boiling point of 254 °C and a melting point of 2 °C.

On to `CCCCCCCCCCCC(=O)[O][Na]`, for which the ready biodegradability result is reported as “readily biodegradable”.

As for `O=C(c1ccc(O)cc1)c1ccc(O)cc1`, the melting point is 210 °C.

Consider `O=C(Nc1ccc(F)cc1F)c1cccnc1Oc1cccc(C(F)(F)F)c1`, for which the log10 Henry constant (atm·m³/mol) was -6.49, the log10 vapour pressure (mmHg) was -7.5 and the melting point was 160 °C.

The molecule `CC(C)=CCO` showed a boiling point of 140 °C.

The molecule `CCCCCCCCCCCCCCCC[n+]1ccccc1.[Br-]` showed a melting point of 63 °C.
